Like-named read-outs stand apart in the source and are kept apart here.
How the values were obtained:
[1] = test system: Rat L2 (alveolar) cells, alveolar T1/T2 cells, alveolar macrophages; experiment: NO gas at air-liquid interface, DAF-FM NO signal in L2, alveolar T1/T2 cells and alveolar macrophages; assay type: cell-based; conditions: NO gas 10 ppm x 4 h; for L-Cys increase of NO signal (effect of competitors): competitors 10 mM x 1 h; for NO signal in all cell types: D- or L-Cys 50 μM, 4-8 wells/group
Method: Rat L2 (alveolar) cells were used at passage 30. 1° alveolar T1/T2 cells were isolated from adult rat lungs with antibody-coated magnetic beads, and identified by immunocytochemistry (T1: T1^α, aquaporin-5; T2: pro-SP-C). Alveolar macrophages were obtained by lavage. Cells were plated onto collagen-coated transwells, grown submerged×2d, then incubated with DAF-FM to detect NO. Apical medium was replaced by buffer+glutathione 0.2 mM,±D-or L-Cys 50 μM±LAT competitors L-Leu or BCH, 10 mM×1 h then exposed to air or NO gas 10 ppm×4 h. Fluorescence was read in 4-8 wells/condition. LAT-1 expression was measured/RT-PCR in air or 95% O2-exposed newborn rat lung (day 2, 3, 4, 8).

[2] = Transwell air-liquid interface exposure to NO or ENO gas, intracellular NO signal (DAF-FM); assay type: cell-based; conditions: NO or ENO gas 10 ppm for 4 hours; for NO signal produced by ENO or NO gas: buffer with 0.2 mM glutathione
Method: Cells were plated onto rat-tail collagen coated plastic inserts in a transwell system. When cells were firmly adherent and intact in appearance by microscopy, usually 24 h after plating, cell inserts were incubated in DAF-FM diacetate for one hour, then rinsed in Hepes-buffered Hank's balanced salt solution without amino acids. Buffer was removed from the upper chamber of the transwell and replaced with phosphate-buffered saline containing 0.2 mM glutathione in order to mimic the glutathione levels found in human alveolar lining fluid. […] The volume added was a few microliters sufficient to produce a layer of buffer ˜2 micron in thickness, in an effort to model the alveolar lining fluid thickness in the mammalian lung. Cell inserts were incubated at air liquid interface for 30 minutes, then exposed to NO or ENO gas 10 ppm for 4 hours. Inserts were then placed into a fluorescent microplate reader to detect the intracellular NO signal.

[3] = Working Example I: persistent pulmonary hypertension of the newborn; assay type: in vivo, human; conditions: L-cysteine 36 micrograms/kg by nebulizer, then inhaled ethyl nitrite or nitric oxide 1-50 ppm; from 88%
Method: A newborn is delivered at 41 weeks gestational age through thick meconium following a labor requiring augmentation with oxytocin. They are immediately noted at birth to experience respiratory distress and cyanosis. […] Their respiratory distress worsens requiring mechanical ventilation. […] The patient is treated with 36 micrograms/kg of L-cysteine by nebulizer attached to the inspiratory limb of the ventilator circuit, followed by initiation of inhaled ethyl nitrite or inhaled nitric oxide at 1-50 ppm. The patient SpO2 rises immediately from 88% to 100%, and systolic blood pressure improves. This example represents treatment of persistent pulmonary hypertension of the newborn.

[4] = test system: rat alveolar pulmonary epithelial cells (L2 and Type II); experiment: SNO/NO accumulation with NO donors in alveolar epithelial cells; assay type: cell-based; conditions: L-Cys added to NO donors; inhibited by co-incubation with LAT competitors
Method: We carried out experiments showing that addition of L-Cys to NO donors increased SNO/NO accumulation that was inhibited by co-incubation with LAT competitors in rat alveolar pulmonary epithelial cells (L2 and Type II). These are described in Granilla, O. M., AM. J. Physiol Lung Cell Mol. Physiol 295: L38-L43 (first published Apr. 25, 2008).

[5] = Working Example II: prevention of bronchopulmonary dysplasia in a premature newborn; assay type: in vivo, human; conditions: L-cysteine 36 micrograms/kg daily with continuous ethyl nitrite 1-10 ppm for 14 days
From the text: The patient is born at 25 weeks estimated gestational age following preterm prolonged spontaneous rupture of amniotic membranes. The patient requires immediate endotracheal intubation at birth as well as mechanical ventilation. The patient receives the usual neonatal intensive care including exogenous surfactant administration, indomethacin prophylaxis for prevention of intraventricular hemorrhage, and intravenous antibiotics. Because the patient is at high risk to develop bronchopulmonary dysplasia, the patient is treated each day with a single dose of 36 micrograms/kg of L-cysteine and continuous ethyl nitrite at 1-10 ppm for a total of 14 days. (This is done via […] unless the patient should be extubated, in which case the inhaled ethyl nitrite is delivered via nasal cannula and the L-cysteine is administered once a day via nebulizer) Within five days, the patient is weaned from mechanical ventilation and extubated to nasal continuous positive airway pressure, continuing to receive inhaled […] 1-10 ppm, and daily L-cysteine at 36 micrograms/kg. […], the continuous positive airway pressure is discontinued. […] the patient is discharged home, without any diagnosed complications of extreme prematurity. This example represents prevention of development of bronchopulmonary dysphasia in a premature newborn infant.

Rat alveolar (L2) cells [6] = experiment: Intracellular NO signal (DAF-FM fluorescence) in L2 cells incubated with ENO; assay type: cell-based; conditions: ENO 10 mM, L-Leu 10 mM; for ENO induced intracellular NO signal (DAF): L-Cys 0.5 mM, by 24 minutes, N=5/group, p<0.05
Method: (§1) Rat alveolar (L2) cells were located with DAF-FM (converted intracellularly to DAF; NO^++DAF→fluorescense), then incubated with ENO 10 mM+L-Cys 0.5 mM, L-Leu 10 mM (competitor for L-Cys entry via LAT1), or both L-Cys+L-Leu. DAF signal was measured at 5, 10, and 24 min. In parallel studies, S—NO was measured in L2 cell lysates after co-incubation with ENO 0.2 mM±L-Cys 0.5 mM±L-Leu 10 mM by ozone chemiluminescense (normalized to protein). LAT1 protein was detected by western and immunocytochemistry in 8d air or 95% O2—exposed rat lung.

lung cells = experiment: S-nitrosothiol uptake in lung cells (LAT / PEPT2 transport); assay type: cell-based, rat
From the text: It was shown in a kidney cell line that transportation of extracellular S-nitrosothiols in the form of S-nitroso-L-cysteine through the L-type amnio acid transporter (LAT1) is necessary to achieve maximum intracellular S-nitrosothiol accumulation. It was also shown that eliminating the L-type amino acid transporter or blockade of the transporter severely limited the ability of extracellular S-nitroso-L-cysteine to gain entry into the kidney cell line. […] The results for kidney cell line were then obtained for umbilical endothelial cells. This reinforced our conception. We then performed exposures of rat pulmonary alveolar epithelial cells to a variety of S-nitrosothiol and nitric oxide donors and tested whether or not S-nitrosothiol and nitric oxide uptake required transnitrosylation of L-cysteine and uptake through L-type amino acid transport. In particular we conducted experiments using rat alveolar epithelial cells. […] We also tested the dipeptide transporter, PEPT2. […] When we added L-cysteine to the mixture, the high levels of S-nitrosothiol uptake in lung cells were restored, and this restoration was blocked when we blocked function of L-type amino acid transporter by competition or inhibition.
We conducted additional studies to determine if an alternate transporter, namely PEPT2, could account for some of the S-nitrosothiol uptake in lung cells. […] This confirmed the importance of L-cysteine as the carrier which is necessary to achieve high levels of S-nitrosothiols in lung cells. We confirmed these finding in freshly isolated lung cells as well.

Rat alveolar (L2) cells [7] = experiment: S-NO in L2 cell lysates by ozone chemiluminescence; assay type: cell-based; conditions: for ENO induced SNO accumulation: ENO 0.2 mM ± L-Cys 0.5 mM ± L-Leu 10 mM, N=2/group
Method: as §1

[8] = Newborn piglet saline-lavage lung injury with pulmonary hypertension, pulmonary artery pressure; assay type: in vivo; conditions: lungs lavaged with saline, inhaled NO 10 ppm, 56 Torr before treatment
Method: Newborn piglet was anesthetized and a thoracotomy was performed after placing arterial and venous monitoring catheters. A catheter was placed in the pulmonary artery and flow sensors around the pulmonary artery were placed.

With NC1(C(=O)O)CC2CCC1C2 (stereo not drawn) [BCH, 2-aminobicyclo-(2,2,1)-heptane-2-carboxylic acid] the “L-Cys increase of NO signal (effect of competitors)” value [1] was “blocked” and the “L-cysteine augmentation of NO signal (effect of LAT competitors)” value ([2]; with L-cysteine) was “completely abolished”.

In the case of N[C@@H](CS)C(=O)O [L-cysteine], the SpO2 [3] is reported as 100%, the “NO signal in all cell types” value [1] is reported as “increased” and the SNO/NO accumulation [4] is reported as “increased”. For the same molecule, the “bronchopulmonary dysplasia at 36 weeks post conceptual age” value [5] was “no evidence of bronchopulmonary dysplasia”, the “ENO induced intracellular NO signal (DAF)” value (Rat alveolar (L2) cells [6]) was “augmented” and the “NO signal produced by ENO or NO gas” value [2] was “augmentation”. The “S-nitrosothiol signal / accumulation in lung cells” value (lung cells) was “restored” and the “ENO induced SNO accumulation” value (Rat alveolar (L2) cells [7]) was “augmented”.

With CC(C)C[C@H](N)C(=O)O [L-leucine] the “L-Cys increase of NO signal (effect of competitors)” value [1] was “blocked”, the “ENO induced intracellular NO signal (DAF)” value (Rat alveolar (L2) cells [6]) was “significantly less” and the “ENO induced SNO accumulation” value (Rat alveolar (L2) cells [7]) was “did not augment”.

For N[C@H](CS)C(=O)O [D-cysteine], the “NO signal in all cell types” value [1] was “not” and the “NO signal produced by ENO or NO gas” value [2] was “no effect”.

In the case of N[C@@H](CS)C(=O)NCC(=O)O [L-cysteinyl-glycine], the “uptake in lung cells via dipeptide transporter PEPT2” value (lung cells) is reported as “taken up”.

For CCON=O [ENO, ethyl nitrite], the “intracellular NO^+ (DAF)” value (Rat alveolar (L2) cells [6]; 5, 10 and 24 min) was “increased” and the “intracellular SNO” value (Rat alveolar (L2) cells [7]; ENO 0.2 mM) was “increased”.

For N[C@@H](CSN=O)C(=O)NCC(=O)O [S-nitroso-L-cysteinyl-glycine], the “S-nitrosothiol signal / accumulation in lung cells” value (lung cells) was “could not achieve high levels” and the “S-nitrosothiol signal / accumulation in lung cells” value (lung cells; listed as S—NO-Cys-Gly) was “did not significantly increase”.

For [N]=O [Inhaled nitric oxide, nitric oxide], the “peak pulmonary pressure / pulmonary artery pressure” value [8] was 45 Torr.

— patent US7943667B2, “Potentiating the effect of compound comprising nitric oxide” (Duke University, priority 2007, dated 2011)
